# Patent publication US20250197420A1, “MACROCYCLIC COMPOUNDS, COMPOSITIONS, AND METHODS OF USING THEREOF” (Sionna Therapeutics Inc., priority 2022, published 2025)
# Legend:
# [1] = molecular target: T1, Purified recombinant NBD1 (Homo sapiens, UniProt P13569); experiment: Aggregation analysis using differential static light scattering (DSLS): thermal stability of NBD1; type: binding; settings: NBD1 0.2 mg/ml; Tagg of compound well minus average Tagg of DMSO control wells
# T1 construct: Purified recombinant NBD1 was produced using previously described methods; made in house
# T1 sequence (P13569 423-646 limits assumed): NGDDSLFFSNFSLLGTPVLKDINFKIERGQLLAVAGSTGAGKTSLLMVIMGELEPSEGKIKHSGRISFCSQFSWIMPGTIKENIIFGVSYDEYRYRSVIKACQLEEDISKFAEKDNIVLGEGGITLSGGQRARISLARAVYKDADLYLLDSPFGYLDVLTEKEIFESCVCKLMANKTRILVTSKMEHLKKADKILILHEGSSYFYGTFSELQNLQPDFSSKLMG
# In short: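 Recombinant NBD1 at 0.2 mg/ml in Tris/NaCl/MgCl2 buffer with 2 mM ATP, 2 mM DTT, 1% glycerol, pH 7.6, was incubated with compound and heated at 1 °C/min to 70 °C while static light scattering was monitored. Tagg was taken from the curve inflection point and reported as ΔTagg relative to DMSO controls.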
# [2] = test system: Primary human bronchial epithelial cells from a ΔF508 homozygous CF donor (CF-HBE cells); experiment: TECC24 recording of CFTR-mediated transepithelial chloride transport, AUC fold over benchmark VX-809 @10 μM; type: cell-based; settings: 48 hours incubation, AUC of forskolin-stimulated IEQ
# In short: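 CF-HBE cells on inserts were treated with compound for 48 h at 36.5 °C, then recorded in current-clamp with benzamil 10 μM, forskolin 10 μM, and finally CFTR inhibitor-172 20 μM in pH 7.4 Hepes saline. Equivalent Cl− current AUC between forskolin and inhibitor addition is expressed as a ratio to VX-809 AUC: A <3, B 3–6, C 6–20.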
Compound,DSLS (ΔTagg) [1],TECC (test agent AUC divided by VX-809 AUC) [2]
"Cn1nc2nc1-c1cc(ccc1F)Oc1c(F)cc3[nH]ccc3c1COC(=O)NC(C)(C)COCCC2(C)c1cccc(CCC(=O)O)c1 (single isomer, unassigned) [Compound 100B, 3-[3-(23,29-difluoro-3,6,11,11-tetramethyl-13-oxo-9,14,25-trioxa-3,4,12,20,31-pentazapentacyclo-[24.3.1.12,5.016,24.017,21]hentriaconta-1(30),2(31),4,16,18,21,23,26,28-nonaen-6-yl)phenyl]propanoic acid]",A (an ΔTagg value less than or equal to 5 °C is marked “A”),C (a value between 6 and 20 is marked “C”)
"CC(Cc1cccc(C2(C)CCCCC(C)(C)NC(=O)OCc3c(c(F)cc4[nH]ccc34)Oc3ccc(F)c(c3)-c3nc2nn3C)c1)C(=O)O (single isomer, unassigned) [Compound 101A, 3-[3-(23,29-difluoro-3,6,11,11-tetramethyl-13-oxo-14,25-dioxa-3,4,12,20,31-pentazapentacyclo[24.3.1.12,5.016,24.017,21]-hentriaconta-1(30),2(31),4,16,18,21,23,26,28-nonaen-6-yl)phenyl]-2-methyl-propanoic acid]",C (a value greater than 10 °C and less than or equal to 25 °C is marked “C”),B (a value between 3 and 6 is marked “B”)
"CC(Cc1cccc(C2(C)CCCCC(C)(C)NC(=O)OCc3c(c(F)cc4[nH]ccc34)Oc3ccc(F)c(c3)-c3nc2nn3C)c1)C(=O)O (single isomer, unassigned) [Compound 101B, 3-[3-(23,29-difluoro-3,6,11,11-tetramethyl-13-oxo-14,25-dioxa-3,4,12,20,31-pentazapentacyclo[24.3.1.12,5.016,24.017,21]-hentriaconta-1(30),2(31),4,16,18,21,23,26,28-nonaen-6-yl)phenyl]-2-methyl-propanoic acid]",A (an ΔTagg value less than or equal to 5 °C is marked “A”),A (a TECC value less than 3 is marked “A”)
"C[C@@H](Cc1cccc(C2(C)CCCC(C)(C)N(C)S(=O)(=O)CCc3c(c(F)cc4[nH]ccc34)Oc3ccc(F)c(c3)-c3nc2nn3C)c1)C(=O)O (single isomer, unassigned) [Compound 117A]",B (a value above 5 °C and less than or equal to 10 °C is marked “B”),A (a TECC value less than 3 is marked “A”)
"C[C@@H](Cc1cccc(C2(C)CCCC(C)(C)N(C)S(=O)(=O)CCc3c(c(F)cc4[nH]ccc34)Oc3ccc(F)c(c3)-c3nc2nn3C)c1)C(=O)O (single isomer, unassigned) [Compound 117B]",C (a value greater than 10 °C and less than or equal to 25 °C is marked “C”),B (a value between 3 and 6 is marked “B”)
"O=C(O)CCc1cccc(C2CCCCNC(=O)CCc3c(c(F)cc4[nH]ccc34)Oc3ccc(F)c(c3)-c3ncc2[nH]3)c1 (centres unmarked) [Compound 3, 3-[3-(22,28-Difluoro-12-oxo-24-oxa-3,11,19,30-tetrazapentacyclo-[23.3.1.12,5.015,23.016,20]triaconta-1(29),2,4,15,17,20,22,25,27-nonaen-6-yl)phenyl]-propanoic acid]",C (a value greater than 10 °C and less than or equal to 25 °C is marked “C”),B (a value between 3 and 6 is marked “B”)
"O=C(O)CCc1cccc(C2CCCCCCNC(=O)CCc3c(c(F)cc4[nH]ccc34)Oc3ccc(F)c(c3)-c3ncc2[nH]3)c1 (centres unmarked) [Compound 4, 3-[3-(24,30-Difluoro-14-oxo-26-oxa-3,13,21,32-tetrazapentacyclo-[25.3.1.12,5.017,25.018,22]dotriaconta-1(31),2,4,17,19,22,24,27,29-nonaen-6-yl)phenyl]propanoic acid]",C (a value greater than 10 °C and less than or equal to 25 °C is marked “C”),B (a value between 3 and 6 is marked “B”)
